Laboratory results as given in EP3917907B1, “MODULATORS OF POTASSIUM ION CHANNELS AND USES THEREOF” (Universitá Degli Studi Di Salerno, priority 2019, dated 2020).

What was measured:
[1] = Photostability (HPLC, solar simulator irradiation); assay type: physicochemical; conditions: percentage of degradation after 6 h irradiation with solar simulator; 100 ppm in extracellular solution pH 7.4
Method: (§1) In order to study the solution stability and photostability of the potassium channel modulators object of the present invention, a stock solution of the proper analyte (1 mg/mL) in dimethylsulfoxide (DMSO) has been prepared. This solution has been then diluted to a concentration of 100 ppm using extracellular solution containing (in mM): 138 NaCl, 2 CaCl2, 5.4 KCl, 1 MgCl2, 10 glucose, and 10 HEPES, at pH 7.4, adjusted with NaOH. To measure solution stability, the diluted solutions have been maintained at ambient temperature for 6 h. To measure photostability, the diluted solutions have been irradiated for 6 h using a Oriel Sol3A Solar Simulator (Newport corporation, Irvine, CA, USA) with a 12x12 inches output beam. Aliquots of solution have been withdrawn after 6h and analyzed by HPLC using a Kinetex C18, 150 mm × 4.6 mm × 2.6 µm (Phenomenex, Bologna, Italy) as stationary phase and a mobile phase constituted by A: H2O/CH3CN (80:20) and B: CH3CN. Gradient elution has been performed from 20% to 90% of B in 7.50 minutes and from 90% to 20% of B in 1 minute. The pump flux has been set to 1.5 mL/min. Column has been thermostatted at 40°C during analysis. Results are espressed in Table 3 as percentage of degradation of the product calculated as ratio between the peak area of the analyte at time 0 (Pa0) and after 6h (Pa6) using the following formula: % degradation = (Pa0−Pa6)/Pa0 *100. [formula]

[2] = Solution stability (HPLC, extracellular solution, ambient temperature); assay type: physicochemical; conditions: percentage of degradation after 6 h at ambient temperature; 100 ppm in extracellular solution pH 7.4
Method: as §1

Kv7.2 = target: T1, Kv7.2 (Homo sapiens, UniProt O43526); experiment: Whole-cell patch-clamp on CHO cells transiently expressing Kv7.2; assay type: cell-based; conditions: CHO cells, mean±SEM, >1 activating, <1 inhibiting
T1 construct: expressed in transfected cells; host or cells: CHO cells (ATCC CRL-9618), transient transfection, pcDNA3.1(+)
Method: According to the experimental protocol, these plasmids were expressed individually or in combination (in particular of Kv7.2 and Kv7.3), together with a plasmid-expressing enhanced green fluorescent protein (Clontech, Palo Alto, CA) used as a transfection marker. Total cDNA in the transfection mixture was kept at 4 µg. CHO cells were grown in 100-mm plastic Petri dishes in Dulbecco's modified Eagle's medium containing 10% fetal bovine serum, nonessential amino acids (0.1 mM), penicillin (50 U/ml), and streptomycin ([…]) in a humidified atmosphere at 37°C with 5% CO2. The cells were plated on glass coverslips coated with poly-L-lysine, and transfected one day after plating with the appropriate cDNA using Lipofectamine 2000 (Life Technologies), according to the manufacturer's protocol.
Currents from CHO cells were recorded at room temperature (20-22°C) 24 hours after trasfection using the whole-cell configuration of the patch-clamp technique, with glass micropipettes of 3-5 MΩ resistance. During the recording, constant perfusion of extracellular solution was maintained. The extracellular solution contained (in mM): 138 NaCl, 2 CaCl2, 5.4 KCl, 1 MgCl2, 10 glucose, and 10 HEPES, at pH 7.4, adjusted with NaOH. The pipette (intracellular) solution contained (in mM): 140 KCl, 2 MgCl2, 10 EGTA, 10 HEPES, 5 Mg^2+-ATP, at pH 7.3-7.4, adjusted with KOH. Currents were recorded using an Axopatch-200A amplifier, filtered at 5 kHz, and digitized using a DigiData 1440A (Molecular Devices). The pCLAMP software (version 10.2, Molecular Devices) was used for data acquisition and analysis. To evaluate the activity of exemplary compounds on Kv7.2 (see Table 1), as well as on Kv7.1, Kv7.2/7.3, Kv7.3 and Kv7.4 channels for selected compounds (see Table 2), the cells were clamped at -80 mV and currents were elicited by 3-s voltage ramps from -80 mV to +20 mV in the presence and absence of each compound. […] The effects of drugs were expressed as shift in the ramp-voltage (ΔV) calculated at 20% of the maximal current (Miceli et al, Proc Natl Acad Sci U S A. 2013, 110(11):4386-91). Curves were fitted using the following equation: y=max/(1+x/EC50)n, where x is the drug concentration, n is the Hill coefficient and max is the maximal value achieved, as previously described (Ambrosino et al, Br J Pharmacol. 2013, 168(6):1430-1444). Data analysis and fit were performed using Sigmaplot (version 12.3).
Ramp-evoked Kv7.2 currents were analyzed by measuring the currents at -40 mV (a membrane potential value close to the activation threshold) and at 0 mV (a membrane potential value at which Kv7.2 conductance is largely saturated). In particular, -40 mV represents the threshold potential for spike initiation and 0 mV represents instead the membrane potential value at which maximal conductance of the channel is achieved.
In Table 1, the effect of exemplary compounds of the invention is expressed as the ratio between current amplitude in the presence (Idrug) and absence (Ictl) of the drug at these two membrane voltages. […]

Compound	Photostability [1]	Solution stability [2]	Idrug/Ictl at 0 mV (Kv7.2; ratio of ramp-evoked Kv7.2 current amplitude in presence and absence of drug at 0 mV)	Idrug/Ictl at -40 mV (Kv7.2; ratio of ramp-evoked Kv7.2 current amplitude in presence and absence of drug at -40 mV)
O=S(=O)(CC1CCCCC1)Nc1ccc2c(ccn2Cc2ccc(F)cc2)c1 [1-cyclohexyl-N-(1-(4-fluorobenzyl)-1H-indol-5-yl)methanesulfonamide]	A (degradation lower than 20%)	A (degradation lower than 20%)		
COc1ccc([C@@H](C)Nc2ccc(NS(=O)(=O)C3CCCCC3)cc2)cc1 [(R)-N-(4-((1-(4-methoxyphenyl)ethyl)amino)phenyl) cyclohexanesulfonamide]	C (degradation > 40%)	B (20%< degradation<40%)		
O=C(Cc1ccc(Cl)cc1)n1ccc2cc(NS(=O)(=O)C3CCCCC3)ccc21 [N-(1-(2-(4-chlorophenyl)acetyl)-1H-indol-5-yl) cyclohexanesulfonamide]	A (degradation lower than 20%)	A (degradation lower than 20%)		
Cc1cc2cc(NS(=O)(=O)C3CCCCC3)ccc2n1Cc1ccc(F)cc1N [N-(1-(2-amino-4-fluorobenzyl)-2-methyl-1H-indol-5-yl)cyclohexanesulfonamide]	B (20%< degradation<40%)	A (degradation lower than 20%)		
O=S(=O)(Nc1ccc2c(ccn2Cc2ccc(C(F)(F)F)cc2O)c1)C1CCCCC1 [N-(1-(2-hydroxy-4-(trifluoromethyl)benzyl)-1H-indol-5-yl)cyclohexanesulfonamide]	A (degradation lower than 20%)	A (degradation lower than 20%)		
O=S(=O)(Nc1ccc(NCc2ccc(F)cc2)c(F)c1)C1CCCCC1 [N-(3-fluoro-4-((4-fluorobenzyl)amino)phenyl) cyclohexanesulfonamide]			0.83±0.10	0.78±0.15
Cc1cc2c(c(C)c1NS(=O)(=O)C1CCCCC1)CCN2Cc1ccc(C(F)(F)F)cc1 [N-(4,6-dimethyl-1-(4-(trifluoromethyl)benzyl)indolin-5-yl)cyclohexanesulfonamide]	B (20%< degradation<40%)	A (degradation lower than 20%)		
COc1ccc(CN(C)c2ccc(NS(=O)(=O)C3CCCCC3)cc2)cc1 [N-(4-((4-methoxybenzyl)(methyl)amino)phenyl) cyclohexanesulfonamide]	B (20%< degradation<40%)	B (20%< degradation<40%)		

The remaining lines, values ahead:

Photostability [1]	Solution stability [2]	Idrug/Ictl at 0 mV (Kv7.2; ratio of ramp-evoked Kv7.2 current amplitude in presence and absence of drug at 0 mV)	Idrug/Ictl at -40 mV (Kv7.2; ratio of ramp-evoked Kv7.2 current amplitude in presence and absence of drug at -40 mV)	Compound
B (20%< degradation<40%)	A (degradation lower than 20%)			CC(C)(C)CNC(=S)Nc1ccc2c(c1)CCN2Cc1ccc(F)cc1 [1-(1-(4-fluorobenzyl)indolin-5-yl)-3-neopentylthiourea]
C (degradation > 40%)	B (20%< degradation<40%)			CCc1cccc(S(=O)(=O)Nc2ccc(NCc3ccc(OC)cc3)cc2)c1 [3-ethyl-N-(4-((4-methoxybenzyl)amino)phenyl)benze nesulfonamide]
C (degradation > 40%)	B (20%< degradation<40%)			COc1ccc([C@H](C)Nc2ccc(NS(=O)(=O)C3CCCCC3)cc2)cc1 [(S)-N-(4-((1-(4-methoxyphenyl)ethyl)amino)phenyl) cyclohexanesulfonamide]
B (20%< degradation<40%)	A (degradation lower than 20%)			O=C(Cn1ccc2cc(NS(=O)(=O)CC3CCCCC3)ccc21)c1ccc(Br)cc1 [N-(1-(2-(4-bromophenyl)-2-oxoethyl)-1H-indol-5-yl)-1-cyclohexylmethanesulfonamide]
C (degradation > 40%)	C (degradation > 40%)			O=S(=O)(Nc1ccc2c(c1)CCN2Cc1ccc(F)cc1)C1CCCCC1 [N-(1-(4-fluorobenzyl)indolin-5-yl)cyclohexanesulfonamide]
A (degradation lower than 20%)	A (degradation lower than 20%)			CCc1cn(Cc2ccc(C(F)(F)F)cc2)c2ccc(NS(=O)(=O)C3CCCCC3)cc12 [N-(3-ethyl-1-(4-(trifluoromethyl)benzyl)-1H-indol-5-yl) cyclohexanesulfonamide]
